Laboratory results published in patent US9000029B2, “Proline sulfonamide derivatives as orexin receptor antagonists” (Actelion Pharmaceuticals Ltd., priority 2010, dated 2015).
Where two headings read alike, the source gives them in different places.

What was measured:
human orexin-1 receptor = human orexin-1 receptor (Homo sapiens (Human), UniProt O43613); assay: Intracellular calcium measurements (FLIPR), antagonism of orexin-A response; format: cell-based; conditions: CHO cells, 3 nM orexin-A, read-out: IC50 Ox1
Method: (§1) In Vitro Assay: Intracellular Calcium Measurements:
(§2) Chinese hamster ovary (CHO) cells expressing the human orexin-1 receptor and the human orexin-2 receptor, respectively, are grown in culture medium (Ham F-12 with L-Glutamine) containing 300 μg/ml G418, 100 U/ml penicillin, 100 μg/ml streptomycin and 10% heat inactivated fetal calf serum (FCS). The cells are seeded at 20'000 cells/well into 384-well black clear bottom sterile plates (Greiner). The seeded plates are incubated overnight at 37° C. in 5% CO2.
(§3) Human orexin-A as an agonist is prepared as 1 mM stock solution in MeOH: water (1:1), diluted in HBSS containing 0.1% bovine serum albumin (BSA), NaHCO3: 0.375 g/l and 20 mM HEPES for use in the assay at a final concentration of 3 nM.
(§4) Antagonists are prepared as 10 mM stock solution in DMSO, then diluted in 384-well plates using DMSO followed by a transfer of the dilutions into in HBSS containing 0.1% bovine serum albumin (BSA), NaHCO3: 0.375 g/l and 20 mM HEPES. On the day of the assay, 50 μl of staining buffer (HBSS containing 1% FCS, 20 mM HEPES, NaHCO3: 0.375 g/l, 5 mM probenecid (Sigma) and 3 μM of the fluorescent calcium indicator fluo-4 AM (1 mM stock solution in DMSO, containing 10% pluronic) is added to each well. The 384-well cell-plates are incubated for 50 min at 37° C. in 5% CO2 followed by equilibration at RT for 30 min before measurement.
(§5) Within the Fluorescent Imaging Plate Reader (FLIPR Tetra, Molecular Devices), antagonists are added to the plate in a volume of 10 μl/well, incubated for 10 min or (where explicitly indicated) for 120 min and finally 10 μl/well of agonist is added. Fluorescence is measured for each well at 1 second intervals, and the height of each fluorescence peak is compared to the height of the fluorescence peak induced by 3 nM orexin-A with vehicle in place of antagonist. The IC50 value (the concentration of compound needed to inhibit 50% of the agonistic response) is determined and may be normalized using the obtained IC50 value of a on-plate reference compound. Optimized conditions were achieved by adjustment of pipetting speed and cell splitting regime. The calculated IC50 values may fluctuate depending on the daily cellular assay performance. Fluctuations of this kind are known to those skilled in the art.

human orexin-2 receptor = human orexin-2 receptor (Homo sapiens (Human), UniProt O43614); assay: as above; format: cell-based; conditions: CHO cells, 3 nM orexin-A, read-out: IC50 Ox2
Method: as §1, §2, §3, §4, §5

[1] = compound incubation time of 120 min

Chain of human orexin-2 receptor (O43614 whole entry): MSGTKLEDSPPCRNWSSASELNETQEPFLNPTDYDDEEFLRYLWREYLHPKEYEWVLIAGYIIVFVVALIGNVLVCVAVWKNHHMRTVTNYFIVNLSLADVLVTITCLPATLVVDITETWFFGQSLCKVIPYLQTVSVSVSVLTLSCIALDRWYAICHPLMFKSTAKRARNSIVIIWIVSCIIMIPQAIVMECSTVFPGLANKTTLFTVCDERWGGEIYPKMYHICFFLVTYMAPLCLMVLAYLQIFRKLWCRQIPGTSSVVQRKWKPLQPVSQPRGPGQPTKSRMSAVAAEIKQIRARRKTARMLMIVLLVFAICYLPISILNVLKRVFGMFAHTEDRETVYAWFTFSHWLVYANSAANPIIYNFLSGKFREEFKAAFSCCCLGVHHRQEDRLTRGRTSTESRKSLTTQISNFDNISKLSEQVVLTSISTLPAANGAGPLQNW
Chain of human orexin-1 receptor (O43613 whole entry): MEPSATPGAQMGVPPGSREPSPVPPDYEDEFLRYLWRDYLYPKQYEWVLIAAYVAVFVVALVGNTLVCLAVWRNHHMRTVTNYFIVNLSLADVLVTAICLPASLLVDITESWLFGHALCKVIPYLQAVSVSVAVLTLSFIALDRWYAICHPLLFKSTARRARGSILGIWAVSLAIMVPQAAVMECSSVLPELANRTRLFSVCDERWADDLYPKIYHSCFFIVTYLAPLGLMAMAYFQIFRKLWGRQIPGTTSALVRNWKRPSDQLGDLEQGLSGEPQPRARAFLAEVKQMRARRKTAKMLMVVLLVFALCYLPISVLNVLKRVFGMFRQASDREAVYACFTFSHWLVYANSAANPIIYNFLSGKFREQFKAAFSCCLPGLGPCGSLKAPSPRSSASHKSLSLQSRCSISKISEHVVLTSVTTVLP

Row | SMILES | IC50 (human orexin-1 receptor; [1]) | IC50 (human orexin-2 receptor; [1]) | IC50 (human orexin-1 receptor; compound incubation 10 min) | IC50 (human orexin-2 receptor; compound incubation 10 min)
1 | Cc1cc(C)cc(NC(=O)[C@@H]2CCCN2S(=O)(=O)c2ccc(S(C)(=O)=O)cc2)c1 [Example 49, (S)-1-(4-Methanesulfonyl-benzenesulfonyl)-pyrrolidine-2-carboxylic acid (3,5-dimethyl-phenyl)-amide] | 16 nM | 197 nM |  | 
2 | COc1ccc(S(=O)(=O)N2CCC[C@H]2C(=O)Nc2ccc(Cl)c(Cl)c2)cc1 [Example 40, (S)-1-(4-Methoxy-benzenesulfonyl)-pyrrolidine-2-carboxylic acid (3,4-dichloro-phenyl)-amide] |  |  | 130 nM | 58 nM
3 | COc1ccc(S(=O)(=O)N2CCC[C@H]2C(=O)Nc2ccc(F)c(F)c2)cc1 [Example 36, (S)-1-(4-Methoxy-benzenesulfonyl)-pyrrolidine-2-carboxylic acid (3,4-difluoro-phenyl)-amide] |  |  | 569 nM | 136 nM
4 | O=C(Nc1cccc(OC(F)(F)F)c1)[C@@H]1CCCN1S(=O)(=O)c1ccc(Br)s1 [Example 2, (S)-1-(5-Bromo-thiophene-2-sulfonyl)-pyrrolidine-2-carboxylic acid (3-trifluoromethoxy-phenyl)-amide] |  |  | 149 nM | 104 nM
5 | CSc1cccc(NC(=O)[C@@H]2CCCN2S(=O)(=O)c2ccc(Br)s2)c1 [Example 1, (S)-1-(5-Bromo-thiophene-2-sulfonyl)-pyrrolidine-2-carboxylic acid (3-methylsulfanyl-phenyl)-amide] |  |  | 20 nM | 10 nM
6 | COc1ccc(S(=O)(=O)N2CCC[C@H]2C(=O)Nc2cccc(Cl)c2)cc1 [Example 18, (S)-1-(4-Methoxy-benzenesulfonyl)-pyrrolidine-2-carboxylic acid (3-chloro-phenyl)-amide] |  |  | 83 nM | 31 nM
7 | COc1ccc(S(=O)(=O)N2CCC[C@H]2C(=O)Nc2cc(C)ccc2F)cc1 [Example 38, (S)-1-(4-Methoxy-benzenesulfonyl)-pyrrolidine-2-carboxylic acid (2-fluoro-5-methyl-phenyl)-amide] |  |  | 304 nM | 26 nM
8 | Cc1cc(C)cc(NC(=O)[C@@H]2CCCN2S(=O)(=O)c2ccc(Br)cc2Cl)c1 [Example 58, (S)-1-(4-Bromo-2-chloro-benzenesulfonyl)-pyrrolidine-2-carboxylic acid (3,5-dimethyl-phenyl)-amide] | 179 nM | 106 nM |  | 
9 | COc1ccc(S(=O)(=O)N2CCC[C@H]2C(=O)Nc2cccc(SC)c2)cc1 [Example 6, (S)-1-(4-Methoxy-benzenesulfonyl)-pyrrolidine-2-carboxylic acid (3-methylsulfanyl-phenyl)-amide] |  |  | 21 nM | 3 nM
10 | Cc1cc(C)cc(NC(=O)[C@@H]2CCCN2S(=O)(=O)c2cccc3ccccc23)c1 [Example 42, (S)-1-(Naphthalene-1-sulfonyl)-pyrrolidine-2-carboxylic acid (3,5-dimethyl-phenyl)-amide] | 216 nM | 26 nM |  | 
11 | CSc1cccc(NC(=O)[C@@H]2CCCN2S(=O)(=O)c2ccc(C)c(Cl)c2)c1 [Example 12, (S)-1-(3-Chloro-4-methyl-benzenesulfonyl)-pyrrolidine-2-carboxylic acid (3-methylsulfanyl-phenyl)-amide] |  |  | 5 nM | 3 nM
12 | Cc1cc(C)cc(NC(=O)[C@@H]2CCCN2S(=O)(=O)c2ccc(Br)cc2)c1 [Example 41, (S)-1-(4-Bromo-benzenesulfonyl)-pyrrolidine-2-carboxylic acid (3,5-dimethyl-phenyl)-amide] | 79 nM | 49 nM |  | 
13 | COc1ccc(S(=O)(=O)N2CCC[C@H]2C(=O)Nc2cc(OC)ccc2Cl)cc1 [Example 29, (S)-1-(4-Methoxy-benzenesulfonyl)-pyrrolidine-2-carboxylic acid (2-chloro-5-methoxy-phenyl)-amide] |  |  | 625 nM | 128 nM
14 | COc1ccc(S(=O)(=O)N2CCC[C@H]2C(=O)Nc2ccc(C)c(C)c2)cc1 [Example 23, (S)-1-(4-Methoxy-benzenesulfonyl)-pyrrolidine-2-carboxylic acid (3,4-dimethyl-phenyl)-amide] |  |  | 174 nM | 29 nM
15 | CSc1cccc(NC(=O)[C@@H]2CCCN2S(=O)(=O)c2cccc(Br)c2)c1 [Example 11, (S)-1-(3-Bromo-benzenesulfonyl)-pyrrolidine-2-carboxylic acid (3-methylsulfanyl-phenyl)-amide] |  |  | 7 nM | 2 nM
16 | CCOc1cccc(NC(=O)[C@@H]2CCCN2S(=O)(=O)c2ccc(OC)cc2)c1 [Example 32, (S)-1-(4-Methoxy-benzenesulfonyl)-pyrrolidine-2-carboxylic acid (3-ethoxy-phenyl)-amide] |  |  | 134 nM | 38 nM
17 | Cc1cc(C)cc(NC(=O)[C@@H]2CCCN2S(=O)(=O)c2cc(C(F)(F)F)ccc2Cl)c1 [Example 50, (S)-1-(2-Chloro-5-trifluoromethyl-benzenesulfonyl)-pyrrolidine-2-carboxylic acid (3,5-dimethyl-phenyl)-amide] | 1580 nM | 36 nM |  | 
18 | COc1ccc(S(=O)(=O)N2CCC[C@H]2C(=O)Nc2ccc(Cl)c(C)c2)cc1 [Example 39, (S)-1-(4-Methoxy-benzenesulfonyl)-pyrrolidine-2-carboxylic acid (4-chloro-3-methyl-phenyl)-amide] |  |  | 235 nM | 18 nM
19 | CCc1cccc(NC(=O)[C@@H]2CCCN2S(=O)(=O)c2ccc(OC)cc2)c1 [Example 34, (S)-1-(4-Methoxy-benzenesulfonyl)-pyrrolidine-2-carboxylic acid (3-ethyl-phenyl)-amide] |  |  | 54 nM | 8 nM
20 | COc1ccc(S(=O)(=O)N2CCC[C@H]2C(=O)Nc2ccc(F)c(Cl)c2)cc1 [Example 31, (S)-1-(4-Methoxy-benzenesulfonyl)-pyrrolidine-2-carboxylic acid (3-chloro-4-fluoro-phenyl)-amide] |  |  | 74 nM | 34 nM
21 | COc1ccc(S(=O)(=O)N2CCC[C@H]2C(=O)Nc2cc(C)cc(C)c2)cc1OC [Example 44, (S)-1-(3,4-Dimethoxy-benzenesulfonyl)-pyrrolidine-2-carboxylic acid (3,5-dimethyl-phenyl)-amide] | 109 nM | 101 nM |  | 
22 | Cc1cc(C)cc(NC(=O)[C@@H]2CCCN2S(=O)(=O)c2ccc(Br)cc2C)c1 [Example 57, (S)-1-(4-Bromo-2-methyl-benzenesulfonyl)-pyrrolidine-2-carboxylic acid (3,5-dimethyl-phenyl)-amide] | 62 nM | 22 nM |  | 
23 | COc1ccc(S(=O)(=O)N2CCC[C@H]2C(=O)Nc2ccc(F)c(C)c2)cc1 [Example 37, (S)-1-(4-Methoxy-benzenesulfonyl)-pyrrolidine-2-carboxylic acid (4-fluoro-3-methyl-phenyl)-amide] |  |  | 70 nM | 28 nM
24 | CSc1cccc(NC(=O)[C@@H]2CCCN2S(=O)(=O)c2cccc(Cl)c2)c1 [Example 7, (S)-1-(3-Chloro-benzenesulfonyl)-pyrrolidine-2-carboxylic acid (3-methylsulfanyl-phenyl)-amide] |  |  | 8 nM | 2 nM
25 | Cc1cc(C)cc(NC(=O)[C@@H]2CCCN2S(=O)(=O)c2ccc(C(F)(F)F)cc2Cl)c1 [Example 51, (S)-1-(2-Chloro-4-trifluoromethyl-benzenesulfonyl)-pyrrolidine-2-carboxylic acid (3,5-dimethyl-phenyl)-amide] | 80 nM | 14 nM |  | 
